Test results: US12168003B2, “Selective inhibition of T follicular helper cells for treatment of autoimmune disorders” (priority 2019, dated 2024)

How the values were obtained:
[1] = tested on: CD4+ T cells from mice immunized with OVA/Alum; test: In vitro treatment of mouse splenocytes with 4EGI-1 and SUnSET assay; assay type: cell-based
Method: Mice were immunized with 100 μg OVA/Alum and 7 days following, spleens were harvested and single-cell suspensions were generated. Splenocytes were incubated in mouse T cell media (detailed in Silencing of eIF4E in OT2 T cells by lentivirus transduction) with 0-25 μM 4EGI-1 for 4 hours at 37° C. Cells were stained with a live/dead viability marker and then for extracellular expression of CD4, CXCR5, PD-1, or ICOS or intranuclear expression of BCL6. For the SuNSET assay, cells from above were incubated 37° C. with 10 μg/mL puromycin for 10 minutes. Control samples were incubated with puromycin and 100 μg/mL cycloheximide. Cells were incubated with a live/dead viability marker and extracellular stain prior to fixation and permeabilization (BD Biosciences Fixation/Permeabilization Solution) and intracellular staining with anti-puromycin followed by anti-mouse IgG2a antibody conjugated to Alexa Fluor 488.

TH2 cells and Tregs = test: A. fumigatus repeat sensitization airway disease model; assay type: in vivo, mouse
Method: A. fumigatus Fresenius (ATCC 13073) was grown for 7 days on potato dextrose agar plates (Thermo Scientific) at 37° C. Conidia were harvested by agitation in a flask with sterile PBS+0.1% Tween-20 and filtered through a 40 μm nylon mesh. Mice were intratracheally sensitized with 1.8×10^6 conidia in 50 μL of PBS on days 0, 7, and 11. On day 0 through 17 mice were treated daily with i.p. 25 mg/kg 4EGI-1 or vehicle. On day 18, mice were euthanized and lungs were collected along with mediastinal lymph node (MedLN) and blood. Serum was obtained and stored as described above.
Spleens, draining lymph nodes, and brains were dissociated with the plunger-end of a syringe and passed through a 70 μm nylon filter. Splenocytes were subject to RBC lysis with ACK (Ammonium-Chloride-Potassium). Ears were subject to mechanical dissociation with scissors prior to incubation in 1 mL PBS in a 48-well plate with 100 μg/mL Liberase TL and 20 μg/mL DNase I for 1.5 hours at 37° C. Following incubation, cells were further dissociated by passing through a syringe, quenched with PBS+2% FCS, and filtered through a 70 μm nylon filter. Lungs were mechanically dissociated with a razor blade and incubated in a 6 cm dish with 5 mLs RPMI containing 250 μg/mL collagenase, 50 μg/mL Liberase TL, 1 mg/mL hyaluronidase, and 200 μg/mL DNase I for 30 minutes. Following incubation, cells quenched with PBS+2% FCS, and filtered through a 70 μm nylon filter. Ear and lung cells were subject to lymphocyte isolation using a gradient (Lymphocyte Separation Medium; Cellgro). Vertebral columns were flushed with PBS through a 19-gauge needle to remove intact spinal cords. Spinal cords were subject to mechanical dissociation with scissors and incubation in 1 mL PBS with 200 μg/mL DNase I and 50 μg/mL Liberase TL for 30 minutes at 37° C. Following incubation, cells were quenched with PBS+2% FCS and filtered through a 70 μm nylon filter.
For quantification of OVA-specific IgG1, high-binding 96-well plates (Costar) were coated with 10 μg/mL OVA protein. For S. aureus-specific IgG1, plates were coated with heat-killed S. aureus (heat-killed at 80° C. for 30 min). For total IgE, plates were coated with 2 μg/mL rat anti-mouse IgE (Southern Biotech). Following overnight incubation at 4° C., plates were blocked with 1% BSA for 30 min at 37° C. After blocking, serum (diluted 1/20 initially then 1/2 down the plate) was incubated at 37° C. for 2 hours, plates were washed 3 times in PBS and then incubated with 1:1000 anti-mouse IgG1-HRP (Southern Biotech) or anti-mouse IgE-HRP (Southern Biotech) for 1 hour at 37° C. Plates were washed 3 times in PBS and incubated with TMB substrate. Following development, TMB Stop Solution (BioLegend®) was added and plates were read at […].
Lungs fixed in 4% PFA (ThermoFisher) and spinal cords fixed in 10% buffered formalin (Leica) were incubated overnight and moved to 70% ethanol prior to ethanol dehydration, xylene incubation, and paraffin embedding. Five-micron thick sections of lung were stained with hematoxylin and eosin (H&E), Periodic Acid-Schiff (PAS), or Masson's Trichrome Stain (MTS). Spinal cords were stained with H&E or Luxol fast blue and hematoxylin (LFB-H). Staining was visualized with an EVOS FLc microscope.

[2] = 4EGI-1 up to 25 μM, 4 hours, mouse CD4+ T cells
[3] = 10-25 μM 4EGI-1, 4 hours, mouse CD4+ lymphocytes in culture
[4] = 25 mg/kg daily i.p., lung sections
[5] = mediastinal lymph nodes, day 18

O=C(O)C(Cc1ccccc1[N+](=O)[O-])=NNc1nc(-c2ccc(Cl)c(Cl)c2)cs1 (mixture of isomers) [4EGI-1]
levels of CXCR5 protein [1, 2]: unchanged
levels of ICOS protein [1, 2]: unchanged
levels of PD-1 protein [1, 2]: unchanged
reduction of BCL6 protein levels [1, 2]: ~3 fold
cell viability [1, 3]: without reducing
reduction of protein synthesis (SUnSET) [1, 3]: 3-4 fold
levels of pulmonary TH2 cells (GATA3+ or IL-13+) (TH2 cells and Tregs; 25 mg/kg daily i.p., day 18): no effect
levels of pulmonary Tregs (Foxp3+) (TH2 cells and Tregs; 25 mg/kg daily i.p., day 18): no effect
levels of pulmonary eosinophils (TH2 cells and Tregs; 25 mg/kg daily i.p., day 18): no effect
airway inflammation (TH2 cells and Tregs; [4]): no effect
mucin production (TH2 cells and Tregs; [4]): no effect
formation of GC B cells in draining lymph nodes (TH2 cells and Tregs; [5]): strongly reduced
formation of TFH cells in draining lymph nodes (TH2 cells and Tregs; [5]): strongly reduced
secretion of class-switched immunoglobulins (TH2 cells and Tregs; serum total IgE, day 18): strongly reduced
